Values after ≈ are worked out from the molar mass of the structure shown. Some results are limits rather than exact numbers.

What all share (format): cell-based
The subject of test [1] is Fusarium proliferatum ATCC 10052. Description: Antifungal MIC by broth dilution (CLSI M38-A), RPMI 1640 with MOPS. To be noted: broth macro-dilution, end point after 48 hours, MIC = 80% inhibition vs growth control (Amphotericin B: complete inhibition); for MIC: Fusarium proliferatum, ATCC10052, read-out: MIC F. proliferatum ATCC 10052. The procedure: (§1) The compounds of Formula 1 were tested for antifungal activity against Candida albicans, Aspergillus niger and Fusarium proliferatum. In vitro evaluation of antifungal activity was performed by determining the minimum inhibitory concentration (MIC) following standard methods (CLSI: Reference method for broth dilution antifungal susceptibility testing of yeasts; Approved standard, second edition M27-A2, 2002; CLSI: Reference method for broth dilution antifungal susceptibility testing of filamentous fungi; Approved standard M38-A, 2002). Anti-fungal susceptibility testing of these compounds of Formula 1 was done by broth dilution method using RPMI 1640 medium with MOPS buffer. Known anti-fungal agents like Fluconazole and Amphotericin-B were used as standards. End points were determined after 48 hours visually and by using spectrophotometer wherever necessary.

The test system of test [2] is Aspergillus niger ATCC 16404. Described as above. The following applies: broth macro-dilution, end point after 48 hours, MIC = 80% inhibition vs growth control (Amphotericin B: complete inhibition); for MIC: Aspergillus niger, ATCC16404. The procedure:
as §1

The subject of test [3] is Candida albicans ATCC 24433. Briefly: Antifungal MIC by broth dilution (CLSI M27-A2), RPMI 1640 with MOPS. The following applies: broth macro-dilution, end point after 48 hours, MIC = 80% inhibition vs growth control (Amphotericin B: complete inhibition); for MIC: Candida albicans, ATCC24433, read-out: MIC C. albicans ATCC 24433. The procedure: as §1

Consider `C[C@@H]1[C@H](O)[C@@H](C)/C=C/C=C/C=C/C=C/C=C/C=C/C=C/[C@H](O[C@@H]2O[C@H](C)[C@@H](O)[C@H](N)[C@@H]2O)C[C@@H]2O[C@](O)(C[C@@H](O)C[C@@H](O)[C@H](O)CC[C@@H](O)C[C@@H](O)CC(=O)O[C@H]1C)C[C@H](O)[C@H]2C(=O)O` [Amphotericin B, reference compound], for which the “MIC F. proliferatum ATCC 10052” value in test [1] is 2 µg/mL (≈ 2.16 µM). In test [2], the “MIC A. niger ATCC 16404” value stood at 1 µg/mL (≈ 1.08 µM). The “MIC C. albicans ATCC 24433” value in test [3] was 0.25 µg/mL (≈ 0.271 µM).

Consider `CCOC(=O)c1cc(C)sc1NCC(O)(Cn1cncn1)c1ccc(F)cc1F` (stereo not drawn) [Compound 1a, Ethyl 2-[2-(2,4-difluorophenyl)-2-hydroxy-3-[1,2,4]triazol-1-yl-propylamino]-5-methyl-thiophene-3-carboxylate], for which the MIC was more than 16 µg/mL in test [1], more than 16 µg/mL in test [2] and 2 µg/mL (≈ 4.73 µM) in test [3].

Take `CCOC(=O)c1cc(CC)sc1NCC(O)(Cn1cncn1)c1ccc(F)cc1F` (stereo not drawn) [Compound 1b, Ethyl 2-[2-(2,4-difluorophenyl)-2-hydroxy-3-[1,2,4]triazol-1-yl-propylamino]-5-ethyl-thiophene-3-carboxylate]: the figures for the MIC in test [1], in test [2] and in test [3] were more than 4 µg/mL, more than 4 µg/mL and 2 µg/mL (≈ 4.58 µM), respectively.

Take `CCCc1cc(C(=O)OCC)c(NCC(O)(Cn2cncn2)c2ccc(F)cc2F)s1` (stereo not drawn) [Compound 1c, Ethyl 2-[2-(2,4-difluorophenyl)-2-hydroxy-3-[1,2,4]triazol-1-yl-propylamino]-5-propyl-thiophene-3-carboxylate]: the results for the MIC in test [1], in test [2] and in test [3] were more than 16 µg/mL, more than 16 µg/mL and 2 µg/mL (≈ 4.44 µM), respectively.

With `CCCCCCCc1cc(C(=O)OCC)c(NCC(O)(Cn2cncn2)c2ccc(F)cc2F)s1` (stereo not drawn) [Compound 1d, Ethyl 2-[2-(2,4-difluorophenyl)-2-hydroxy-3[1,2,4]triazol-1-yl-propylamino]-5-heptyl-thiophene-3-carboxylate], the MIC in test [1], in test [2] and in test [3] was more than 8 µg/mL throughout.

Regarding `CCCCCCCCCCc1cc(C(=O)OCC)c(NCC(O)(Cn2cncn2)c2ccc(F)cc2F)s1` (stereo not drawn) [Compound 1e, Ethyl 5-n-decyl-2-[2-(2,4-difluorophenyl)-2-hydroxy-3-[1,2,4]triazol-1-yl-propylamino]-thiophene-3-carboxylate], the MIC in test [1], in test [2] and in test [3] was more than 4 µg/mL throughout.

Take `CCOC(=O)c1cc(CCCOCc2ccccc2)sc1NCC(O)(Cn1cncn1)c1ccc(F)cc1F` (stereo not drawn) [Compound 1f, Ethyl 5-(3-benzyloxypropyl)-2-[2-(2,4-difluorophenyl)-2-hydroxy-3-[1,2,4]triazol-1-yl-propylamino]-thiophene-3-carboxylate]: the MIC in test [1], in test [2] and in test [3] was more than 4 µg/mL throughout.

Turning to `CCOC(=O)c1c(NCC(O)(Cn2cncn2)c2ccc(F)cc2F)sc2c1CCC2` (stereo not drawn) [Compound 1g, Ethyl 2-[2-(2,4-difluorophenyl)-2-hydroxy-3-[1,2,4]triazol-1-yl-propylamino]-5,6-dihydro-4H-cyclopenta[b]thiophene-3-carboxylate], the MIC in test [1] is more than 8 µg/mL; in test [2] it was more than 8 µg/mL; in test [3], 2 µg/mL (≈ 4.46 µM).

With `CCOC(=O)c1c(NCC(O)(Cn2cncn2)c2ccc(F)cc2F)sc2c1CCCC2` (stereo not drawn) [Compound 1h, Ethyl 2-[2-(2,4-difluorophenyl)-2-hydroxy-3-[1,2,4]triazol-1-yl-propylamino]-4,5,6,7-tetrahydro-benzo[b]thiophene-3-carboxylate], the figures for the MIC in test [1], in test [2] and in test [3] were more than 4 µg/mL, more than 4 µg/mL and 4 µg/mL (≈ 8.65 µM), respectively.

As for `CCOC(=O)c1c(NCC(O)(Cn2cncn2)c2ccc(F)cc2F)sc2c1CCCCC2` (stereo not drawn) [Compound 1i, Ethyl 2-[2-(2,4-difluorophenyl)-2-hydroxy-3-[1,2,4]triazol-1-yl-propylamino]-5,6,7,8-tetrahydro-4H-cyclohepta[b]thiophene-3-carboxylate], the minimum inhibitory concentration (MIC) is more than 8 µg/mL in test [1], more than 8 µg/mL in test [2] and 8 µg/mL (≈ 16.8 µM) in test [3].

Regarding `CCCCCCc1sc(NCC(O)(Cn2cncn2)c2ccc(F)cc2F)c(C(=O)OCC)c1C` (stereo not drawn) [Compound 1j, Ethyl 2-[2-(2,4-difluorophenyl)-2-hydroxy-3-[1,2,4]triazol-1-yl-propylamino]-5-hexyl-4-methyl-thiophene-3-carboxylate], the MIC in test [1], in test [2] and in test [3] was more than 2 µg/mL each time.

Regarding `Cc1cc(C#N)c(NCC(O)(Cn2cncn2)c2ccc(F)cc2F)s1` (stereo not drawn) [Compound 1k, 2-[2-(2,4-Difluorophenyl)-2-hydroxy-3-[1,2,4]triazol-1-yl-propylamino]-5-methyl-thiophene-3-carbonitrile], the MIC is more than 32 µg/mL in test [1], more than 32 µg/mL in test [2] and 0.5 µg/mL (≈ 1.33 µM) in test [3].

With `CCc1cc(C#N)c(NCC(O)(Cn2cncn2)c2ccc(F)cc2F)s1` (stereo not drawn) [Compound 1l, 2-[2-(2,4-Difluorophenyl)-2-hydroxy-3-[1,2,4]triazol-1-yl-propylamino]-5-ethyl-thiophene-3-carbonitrile], the MIC is more than 16 µg/mL in test [1], more than 16 µg/mL in test [2] and 0.25 µg/mL (≈ 0.642 µM) in test [3].

Take `CCCc1cc(C#N)c(NCC(O)(Cn2cncn2)c2ccc(F)cc2F)s1` (stereo not drawn) [Compound 1m, 2-[2-(2,4-Difluorophenyl)-2-hydroxy-3-[1,2,4]triazol-1-yl-propylamino]-5-propyl-thiophene-3-carbonitrile]: the results for the MIC in test [1], in test [2] and in test [3] were more than 32 µg/mL, more than 32 µg/mL and 0.12 µg/mL (≈ 0.297 µM), respectively.

For `CCCCCc1cc(C#N)c(NCC(O)(Cn2cncn2)c2ccc(F)cc2F)s1` (stereo not drawn) [Compound 1n, 2-[2-(2,4-Difluorophenyl)-2-hydroxy-3-[1,2,4]triazol-1-yl-propylamino]-5-pentyl-thiophene-3-carbonitrile], the MIC was more than 4 µg/mL in test [1], more than 4 µg/mL in test [2] and 0.25 µg/mL (≈ 0.579 µM) in test [3].

For the molecule `N#Cc1c(NCC(O)(Cn2cncn2)c2ccc(F)cc2F)sc2c1CCC2` (stereo not drawn) [Compound 1o, 2-[2-(2,4-Difluorophenyl)-2-hydroxy-3-[1,2,4]triazol-1-yl-propylamino]-5,6-dihydro-4H-cyclopenta[b]thiophene-3-carbonitrile], the MIC in test [1] is more than 16 µg/mL; in test [2], more than 16 µg/mL; in test [3] it was 0.5 µg/mL (≈ 1.25 µM).

As for `OC(Cn1cncn1)(Cn1cncn1)c1ccc(F)cc1F` [Fluconazole], the MIC was more than 128 µg/mL in test [1], 128 µg/mL (≈ 418 µM) in test [2] and 1 µg/mL (≈ 3.27 µM) in test [3].

One may read the MIC as the lowest concentration that inhibits growth of the organism.
